The values below are quoted from earlier work in patent publication US6623763B2, “Pharmaceutical preparation adhering to the skin, in particular a transdermal therapeutic system for the release of 17-β-estradiol to the human organism” (LTS Lohmann Therape-System AG, priority 1996, dated 2003).

Series [1] concerns Alzheimer's and Parkinson's disease. The conditions noted are these: uniform supply of estradiol.

As for `C[C@]12CC[C@@H]3c4ccc(O)cc4CC[C@H]3[C@@H]1CC[C@@H]2O` [17-β-estradiol semihydrate, 17-β-estradiol-semihydrate], the “temperature of short-term heat treatment without decomposition” value is “up to 170 °C”. `C[C@]12CC[C@@H]3c4ccc(O)cc4CC[C@H]3[C@@H]1CC[C@@H]2O` [17-β-estradiol]: the “efficacy for prophylaxis of Alzheimer's and Parkinson's disease” value in series [1] was “effective”.
